These are literature values, as cited in patent US6596884B2, “Synthesis of hydrogen peroxide” (University of Pittsburgh, priority 1998, dated 2003).

Structures are written as SMILES.

For the series the following is noted: obtained by extrapolation of the data from Santacesaria et al., Ind. Eng. Chem. Res., 1994, 33, 277.

As for `CCc1ccc2c(c1)C(=O)c1ccccc1C2=O` [Entry 2-EtAQ], the kc is listed as 0.47^(3) cm^3/(g s).
